Reference: patent publication US9181234B2, “Antibacterial compounds” (priority 2010, dated 2015)
≈ marks a conversion by molar mass, not a printed value.

Key:
[1] = tested on: Haemophilus influenzae (Isolate ID ATCC 49247); assay: Antibacterial activity, MIC, H. influenzae; type: cell-based; conditions: Haemophilus influenzae, ATCC49247; Gram negative strain; broth microdilution or agar dilution
How it was run: (§1)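 Broth microdilution or agar dilution per CLSI M7-A7; MIC read as susceptibility endpoint in liquid or solid medium.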

[2] = tested on: Streptococcus pyogenes (Isolate ID ATCC 51339); assay: Antibacterial activity, MIC, S. pyogenes; type: cell-based; conditions: Streptococcus pyogenes, ATCC51339, Gram positive strain; broth microdilution or agar dilution
How it was run: as §1

physchem = conditions: kinetic from dmso stock
How it was run: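 DMSO doubling dilutions were diluted twenty-fold into 100 mM citrate (pH 4), PBS (pH 7.4) or carbonate-bicarbonate (pH 9). After 24 h equilibration at room temperature, absorbance was read at 620 nm. The reported value is the highest concentration without measurable precipitate.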

[3] = tested on: Staphylococcus aureus (Isolate ID ATCC 29213); assay: Antibacterial activity, MIC, S. aureus; type: cell-based; conditions: Staphylococcus aureus, ATCC29213, Gram positive strain; broth microdilution or agar dilution
How it was run: as §1

[4] = tested on: Enterococcus faecalis (Isolate ID ATCC 29212); assay: Antibacterial activity, MIC, E. faecalis; type: cell-based; conditions: Enterococcus faecalis, ATCC29212; Gram positive strain; broth microdilution or agar dilution
How it was run: as §1

[5] = pH 7.4, aqueous buffer, Solubility (pH 7.4)
[6] = pH 7.4, aqueous buffer, Solubility Range
[7] = pH 9, aqueous buffer, Max Solubility
[8] = pH 9, aqueous buffer, Solubility Range (maximum solubility)
[9] = pH 7.4, aqueous buffer, Max Solubility
[10] = pH 7.4, aqueous buffer, Solubility Range (maximum solubility)

SMILES | MIC [1] | MIC [2] | solubility at 24 h (physchem; [5]) | solubility at 24 h (physchem; [6]) | solubility at 24 h (physchem; [7]) | solubility at 24 h (physchem; [8]) | MIC [3] | MIC [4] | solubility at 24 h (physchem; [9]) | solubility at 24 h (physchem; [10])
CCCC1(C(=O)O)CCN(c2ncc(-c3cc(-c4nccc(C)n4)c4sc(NC(=O)NCC)nc4c3)cn2)CC1 [Compound 120] | > 16 µg/mL | ≤ 0.25 µg/mL | 400 µg/mL (≈ 713 µM) | 400 to 800 µg/mL (≈ 713 to 1430 µM) | ≥ 800 µg/mL | > 800 µg/mL | ≤ 0.25 µg/mL | ≤ 0.25 µg/mL | – | –
CCCC1(C(=O)O)CCN(c2ncc(-c3cc(-c4cc(OC)ncn4)c4sc(NC(=O)NCC)nc4c3)cn2)CC1 [Compound 121] | 1 to 16 µg/mL (≈ 1.73 to 27.7 µM) | ≤ 0.25 µg/mL | 100 µg/mL (≈ 173 µM) | 12.5 to 400 µg/mL (≈ 21.7 to 694 µM) | ≥ 800 µg/mL | > 800 µg/mL | ≤ 0.25 µg/mL | ≤ 0.25 µg/mL | – | –
CCCC1(C(=O)O)CCN(c2ncc(-c3cc(-c4cc(OC)ccn4)c4sc(NC(=O)NCC)nc4c3)cn2)CC1 [Compound 122] | 1 to 16 µg/mL (≈ 1.74 to 27.8 µM) | ≤ 0.25 µg/mL | ≥ 800 µg/mL | > 800 µg/mL | – | – | ≤ 0.25 µg/mL | ≤ 0.25 µg/mL | ≥ 800 µg/mL | > 800 µg/mL
CCCC1(C(=O)O)CCN(c2ncc(-c3cc(-c4cc(C#N)ccn4)c4sc(NC(=O)NCC)nc4c3)cn2)CC1 [Compound 123] | > 16 µg/mL | ≤ 0.25 µg/mL | ≥ 800 µg/mL | > 800 µg/mL | – | – | ≤ 0.25 µg/mL | ≤ 0.25 µg/mL | ≥ 800 µg/mL | > 800 µg/mL
CCCC1(C(=O)O)CCN(c2ncc(-c3cc(-c4ccc(C#N)cn4)c4sc(NC(=O)NCC)nc4c3)cn2)CC1 [Compound 124] | 1 to 16 µg/mL (≈ 1.75 to 28 µM) | ≤ 0.25 µg/mL | ≥ 800 µg/mL | > 800 µg/mL | – | – | ≤ 0.25 µg/mL | ≤ 0.25 µg/mL | ≥ 800 µg/mL | > 800 µg/mL
CCCC1(C(=O)O)CCN(c2ncc(-c3cc(-c4ncnc5[nH]ccc45)c4sc(NC(=O)NCC)nc4c3)cn2)CC1 [Compound 125] | > 16 µg/mL | ≤ 0.25 µg/mL | 50 µg/mL (≈ 85.4 µM) | 12.5 to 400 µg/mL (≈ 21.3 to 683 µM) | ≥ 800 µg/mL | > 800 µg/mL | 0.25 to 1 µg/mL (≈ 0.427 to 1.71 µM) | ≤ 0.25 µg/mL | – | –
CCCC1(C(=O)O)CCN(c2ncc(-c3cc(-c4ncccc4C#N)c4sc(NC(=O)NCC)nc4c3)cn2)CC1 [Compound 126] | 1 to 16 µg/mL (≈ 1.75 to 28 µM) | ≤ 0.25 µg/mL | 100 µg/mL (≈ 175 µM) | 12.5 to 400 µg/mL (≈ 21.9 to 701 µM) | ≥ 800 µg/mL | > 800 µg/mL | ≤ 0.25 µg/mL | ≤ 0.25 µg/mL | – | –
CCCC1(C(=O)O)CCN(c2ncc(-c3cc(-c4nccc(OC)n4)c4sc(NC(=O)NCC)nc4c3)cn2)CC1 [Compound 127] | > 16 µg/mL | ≤ 0.25 µg/mL | 12.5 µg/mL (≈ 21.7 µM) | 12.5 to 400 µg/mL (≈ 21.7 to 694 µM) | 25 µg/mL (≈ 43.4 µM) | 12.5 to 400 µg/mL (≈ 21.7 to 694 µM) | ≤ 0.25 µg/mL | ≤ 0.25 µg/mL | – | –
CCNC(=O)Nc1nc2cc(-c3cnc(N4CCC(N)(C(=O)O)CC4)nc3)cc(-c3ccccn3)c2s1 [Compound 128, 4-amino-1-[5-[2-(ethylcarbamoylamino)-7-(2-pyridyl)-1,3-benzothiazol-5-yl]pyrimidin-2-yl]piperidine-4-carboxylic acid] | > 16 µg/mL | 1 to 16 µg/mL (≈ 1.93 to 30.9 µM) | 25 µg/mL (≈ 48.2 µM) | 12.5 to 400 µg/mL (≈ 24.1 to 771 µM) | – | – | > 16 µg/mL | > 16 µg/mL | – | –
CCNC(=O)Nc1nc2cc(-c3cnc(N4CCC(C(=O)O)(c5ccccc5)CC4)nc3)cc(-c3ccccn3)c2s1 [Compound 129] | > 16 µg/mL | 0.25 to 1 µg/mL (≈ 0.431 to 1.73 µM) | 12.5 µg/mL (≈ 21.6 µM) | 12.5 to 400 µg/mL (≈ 21.6 to 690 µM) | – | – | 0.25 to 1 µg/mL (≈ 0.431 to 1.73 µM) | ≤ 0.25 µg/mL | – | –
CCNC(=O)Nc1nc2cc(-c3cnc(N4CCC(C#N)(C(=O)O)CC4)nc3)cc(-c3ccccn3)c2s1 [Compound 130] | > 16 µg/mL | 1 to 16 µg/mL (≈ 1.89 to 30.3 µM) | 200 µg/mL (≈ 378 µM) | 12.5 to 400 µg/mL (≈ 23.6 to 757 µM) | – | – | > 16 µg/mL | 1 to 16 µg/mL (≈ 1.89 to 30.3 µM) | – | –
CCNC(=O)Nc1nc2cc(-c3cnc(N4CCC(O)(C(=O)O)CC4)nc3)cc(-c3ccccn3)c2s1 [Compound 131] | 1 to 16 µg/mL (≈ 1.92 to 30.8 µM) | ≤ 0.25 µg/mL | 100 µg/mL (≈ 192 µM) | 12.5 to 400 µg/mL (≈ 24.1 to 770 µM) | – | – | 1 to 16 µg/mL (≈ 1.92 to 30.8 µM) | 0.25 to 1 µg/mL (≈ 0.481 to 1.92 µM) | – | –
CCNC(=O)Nc1nc2cc(-c3cnc(N4CCC(OC)(C(=O)O)CC4)nc3)cc(-c3ccccn3)c2s1 [Compound 132] | 1 to 16 µg/mL (≈ 1.87 to 30 µM) | ≤ 0.25 µg/mL | 400 µg/mL (≈ 750 µM) | 400 to 800 µg/mL (≈ 750 to 1500 µM) | – | – | 0.25 to 1 µg/mL (≈ 0.469 to 1.87 µM) | ≤ 0.25 µg/mL | – | –
CCNC(=O)Nc1nc2cc(-c3cnc(N4CCC(C(=O)O)(S(C)(=O)=O)CC4)nc3)cc(-c3ccccn3)c2s1 [Compound 133] | > 16 µg/mL | 1 to 16 µg/mL (≈ 1.72 to 27.5 µM) | ≥ 800 µg/mL | > 800 µg/mL | – | – | > 16 µg/mL | 1 to 16 µg/mL (≈ 1.72 to 27.5 µM) | – | –
CCNC(=O)Nc1nc2cc(-c3cnc(N4CCC(Cc5ccccc5)(C(=O)O)CC4)nc3)cc(-c3ccccn3)c2s1 [Compound 134] | > 16 µg/mL | 0.25 to 1 µg/mL (≈ 0.421 to 1.68 µM) | 100 µg/mL (≈ 168 µM) | 12.5 to 400 µg/mL (≈ 21.1 to 674 µM) | – | – | ≤ 0.25 µg/mL | ≤ 0.25 µg/mL | – | –
CCNC(=O)Nc1nc2cc(-c3cnc(N4CCC(F)(C(=O)O)CC4)nc3)cc(-c3ccccn3)c2s1 [Compound 135] | 1 to 16 µg/mL (≈ 1.92 to 30.7 µM) | ≤ 0.25 µg/mL | 400 µg/mL (≈ 767 µM) | 400 to 800 µg/mL (≈ 767 to 1530 µM) | – | – | 1 to 16 µg/mL (≈ 1.92 to 30.7 µM) | ≤ 0.25 µg/mL | – | –
CCNC(=O)Nc1nc2cc(-c3cnc(N4CCC(C(=O)O)(C(C)C)CC4)nc3)cc(-c3ccccn3)c2s1 [Compound 137] | 1 to 16 µg/mL (≈ 1.83 to 29.3 µM) | ≤ 0.25 µg/mL | 400 µg/mL (≈ 733 µM) | 400 to 800 µg/mL (≈ 733 to 1470 µM) | – | – | ≤ 0.25 µg/mL | ≤ 0.25 µg/mL | – | –
CCNC(=O)Nc1nc2cc(-c3cnc(N4CCC(SC)(C(=O)O)CC4)nc3)cc(-c3ccccn3)c2s1 [Compound 138] | 1 to 16 µg/mL (≈ 1.82 to 29.1 µM) | ≤ 0.25 µg/mL | ≥ 800 µg/mL | > 800 µg/mL | – | – | ≤ 0.25 µg/mL | ≤ 0.25 µg/mL | – | –
C=CCC1(C(=O)O)CCN(c2ncc(-c3cc(-c4cnccn4)c4sc(NC(=O)NCC)nc4c3)cn2)CC1 [Compound 139, 4-allyl-1-[5-[2-(ethylcarbamoylamino)-7-pyrazin-2-yl-1,3-benzothiazol-5-yl]pyrimidin-2-yl]piperidine-4-carboxylic acid] | 1 to 16 µg/mL (≈ 1.84 to 29.4 µM) | ≤ 0.25 µg/mL | ≥ 800 µg/mL | > 800 µg/mL | – | – | ≤ 0.25 µg/mL | ≤ 0.25 µg/mL | – | –
CCNC(=O)Nc1nc2cc(-c3cnc(N4CCC(CC(F)(F)F)(C(=O)O)CC4)nc3)cc(-c3ccccn3)c2s1 [Compound 140] | 1 to 16 µg/mL (≈ 1.71 to 27.3 µM) | ≤ 0.25 µg/mL | ≥ 800 µg/mL | > 800 µg/mL | – | – | 0.25 to 1 µg/mL (≈ 0.427 to 1.71 µM) | ≤ 0.25 µg/mL | ≥ 800 µg/mL | > 800 µg/mL
CCNC(=O)Nc1nc2cc(-c3cnc(N4CCC(C(=O)O)(C(F)(F)F)CC4)nc3)cc(-c3ccccn3)c2s1 [Compound 142, 1-[5-[2-(ethylcarbamoylamino)-7-(2-pyridyl)-1,3-benzothiazol-5-yl]pyrimidin-2-yl]-4-(trifluoromethyl)piperidine-4-carboxylic acid] | 1 to 16 µg/mL (≈ 1.75 to 28 µM) | ≤ 0.25 µg/mL | ≥ 800 µg/mL | > 800 µg/mL | – | – | 1 to 16 µg/mL (≈ 1.75 to 28 µM) | ≤ 0.25 µg/mL | ≥ 800 µg/mL | > 800 µg/mL
